SMILES	melting point [°C]
COc1ccc(Cn2c(C)cc3c(=O)[nH][nH]c(=O)c32)cc1	300
CCCC1OC(C(=O)OC)CC2=C1C(=O)c1ccccc1C2=O (configuration not stated)	112 to 114
COC(=O)N(COc1ccc(Cl)cc1Cl)c1ccc(Cl)cc1	70 to 80
COc1ccc(N2C(=O)[C@H](O)[C@@H]2CC(C)C)cc1	160 to 163
CNCC1Cc2cc(Cl)cc(-c3ccccc3OC)c2O1 (configuration not stated)	100 to 102
Cc1cc(C2=NN=C(C=O)Cc3cc4c(cc32)OCO4)ccc1[N+](=O)[O-]	188 to 191
COc1ccc(CNc2n[nH]cc2C(=O)O)cc1OC1CCCC1	134 to 136
Cc1ccc2c3c(ccc2n1)OC[C@H](CNC[C@@H]1CCc2[nH]c4ccc(F)cc4c2C1)O3	89 to 93
Nc1nc2n(c(=O)c1N=O)CCN2Cc1ccc(Cl)cc1	273 to 275
O=S(=O)(Nc1ncncc1-c1ccc(Cl)cc1)c1ccc(O)cc1	231 to 232
NC(=O)C(c1ccccc1)(c1ccccc1)[C@@H]1CCNC1	128 to 132
CCCc1c(OCCCOc2cc(O)c(-c3ccc(F)cc3)cc2CC)cccc1C(=O)c1ccccc1C(=O)O	50 to 52
CCNC(=O)c1c([Si](C)(C)C)ccc(Cl)c1Cl	96 to 98
CCCCN1C(C)=C(C(=O)OCC)C(c2cc([N+](=O)[O-])ccc2OCC(=O)OCC)C(C(=O)OCC)=C1C	88 to 90
C/C(=C\c1ccc(C(=O)O)cc1)c1ccc(O)c(C23CC4CC(CC(C4)C2)C3)c1	245 to 246
CN1CC(CCCl)c2nc3ccccc3n2C1=O (configuration not stated)	88 to 91
Cc1ccc(F)cc1C(=O)Nc1ccc(C(=O)N2Cc3cccn3-c3ccccc32)cn1	190 to 196
CCC(C)(CCc1ccccc1)NC(=O)n1nc(C)n(N)c1=O (configuration not stated)	78
CCOC(=O)c1[nH]c2cc(Cl)cc(Cl)c2c1NCCC(=O)c1ccc(C(F)(F)F)cc1	232 to 234
Oc1ccc2nc(-c3ccc(O)c(F)c3)cc(-c3ccc(F)cc3)c2c1	240 to 243
N#C[C@@H](NCc1ccccc1)[C@@H]1CSC(=O)N1Cc1ccccc1	131 to 132
O=C1CCC(N2C(=O)c3ccc(CNC(=O)c4ccc(Cl)c(Cl)c4)cc3C2=O)C(=O)N1 (configuration not stated)	253 to 255
CC(C)CN(CC(O)(Cn1cncn1)c1ccc(Cl)cc1Cl)S(C)(=O)=O (configuration not stated)	128 to 129
Cc1cc(-c2nc3cccnn3c2-c2ccnc(NC(=O)NC3CC3)c2)ccc1F	222 to 223
CC(=O)C(C)S(=O)(=O)c1ccc(C=C(C)c2ccc3c(c2)C(C)(C)CCC3(C)C)cc1 (configuration not stated)	139 to 141

SMILES	melting point [°C]
CC(C)(C)OC(=O)NCCC(=O)NC(CC(=O)OCc1ccccc1)c1ccccc1 (configuration not stated)	124 to 126
Nc1ncnc2cc(CCl)ccc12	> 300
CC(=O)C(C(=O)OC(C)(C)C)C(=O)c1ccc(C(=O)C(C(C)=O)C(=O)OC(C)(C)C)cc1 (configuration not stated)	94 to 96
CCOC(=O)C(O)CCn1cnc2c(=O)[nH]c(N)nc21 (configuration not stated)	161 to 163
Cc1ccccc1C(Oc1cc(OCc2ccccc2)ccc1C#N)C(=O)O (racemic)	128 to 130
COc1cc(C(C)C)c2c(c1)S(=O)(=O)N(COC(=O)c1sccc1Cl)C2=O	138 to 140
O=C(O)CC(=Cc1ccccc1)C(=O)O	114
[N-]=[N+]=N[C@]1(C(=O)O)[C@H]2[C@@H](C[C@H]1O)[C@@H]2C(=O)O	124 to 128
COc1ccccc1NC(=O)Cc1ccccc1	128 to 131
COC(=O)CCC(C)C1CCC2C3CCC4CCCCC4(C)C3CCC12C (configuration not stated)	87
COC(=O)c1nc(Br)c(F)c(N)c1Cl	119 to 120
CCn1c(=O)c2c(nc(/C=C/c3cc(OC)c4c(c3)OCO4)n2C)n(CC)c1=O	202
CCCc1c(C(=O)C(C)C)c2ccc(NC=O)cc2n1Cc1ccccc1Cl	113 to 115
CC(C)n1nc(-c2c(OCCF)nc(N)nc2-c2ccccc2)ccc1=O	129 to 130
CC1CN(c2ccc(Cl)cc2)N=C1NCC(F)(F)F (configuration not stated)	84 to 86
CC1(c2ccc(N)cc2)C(=O)c2c(Cl)cc(Cl)cc2N(Cc2ccccc2)C1=O (configuration not stated)	209 to 210
CC1CN(c2ccccc2)c2ccccc2N1 (configuration not stated)	91 to 93
COc1ccc(CN(C)CCCc2ccc(NC(=O)c3[nH]c4ccccc4c3C(=O)c3ccccc3)cc2)cc1OC	156 to 161
CN1C(=O)C(C(=O)Nc2cccc(F)c2)S(=O)(=O)c2ccccc21 (configuration not stated)	206 to 208
CC1(N2Cc3cc(CNC(=O)c4ccc(OC(F)(F)F)cc4)ccc3C2=O)CCC(=O)NC1=O (configuration not stated)	224 to 226
COC(=O)c1ccc(CC(C)NCC(O)c2ccccc2)c(OC)c1 (configuration not stated)	102 to 104
Cc1cnn(-c2cc(N)c(Cl)cc2Cl)c(=O)c1Br	211
CC1CN(c2ccccn2)CCN1Cc1nc2ccccc2[nH]1 (configuration not stated)	151 to 153
CCOC(=O)C(Cc1nc2cc(Cl)c(Cl)cc2nc1CP(=O)(OC)OC)(NC(C)=O)C(=O)OCC	130 to 132
C=C(C)COc1c(C)c(CCC=O)c2c(c1C)CC(C)(C)O2	55.5 to 56

SMILES	melting point [°C]
CN(Cc1ccc(-c2ccc(N3C[C@H](Cn4ccnn4)OC3=O)cc2F)cn1)CC(O)CO (some centres not stated)	123
O=C1NC(=O)C(Cc2ccc(OCC3CN(c4ccccn4)CCO3)cc2)S1 (configuration not stated)	139 to 142
O=C(O)CCCc1cc2nc(Cl)ccc2n1S(=O)(=O)c1ccc(C(F)(F)F)cc1	185
CCOC(=O)c1ccc(/C=C(\C)c2ccc3c(c2)C(C)(C)CCC3(C)C)cc1	90 to 91
CN(C)CCOc1ccc(N(CCN(C)C)c2nccc(-c3ccncc3)n2)cc1	87 to 91
CCCc1c(OCC(O)COc2ccc(CC(=O)O)cc2F)ccc(C(C)=O)c1O (configuration not stated)	137 to 138
CCCOc1c2nc(C(=O)OC)cc(O)c2cc2c(O)cc(C(=O)OC)nc12	245 to 247
C1=C(COc2ccccc2)CCN(Cc2c[nH]c3ccccc23)C1	140 to 142
COc1c(Nc2ccccc2)ccc2ccccc12	43 to 45
C=C(C)C(=O)OCCCCOC(=O)/C=C/c1ccc(OC(=O)c2ccc(OC)cc2)cc1	89 to 90
COc1cc(C(F)(F)F)cc(OC)c1-c1csc(NC(=O)c2cc3ccccc3n2CC(=O)OC(C)(C)C)n1	214 to 216
O=S1(=O)c2ccccc2Nc2nccnc21	316 to 318
CCn1cc(C(=O)O)c(=O)c2cc(F)c(N3CCC(NC(=O)OC(C)(C)C)C3)c(C)c21 (configuration not stated)	184 to 188
CCOC(=O)C(C#N)=CC=Cc1ccc(C(C)(C)C)cc1	65 to 70
COCCNC(=O)c1cnc(C(=O)O)c(OC)c1	160 to 161
CCOC(=O)C(NC(=O)c1ccccc1)C(C)C (configuration not stated)	74
CCCc1c(CSc2nnc(N)s2)ccc(C(C)=O)c1O	143 to 147
COc1ccc(C(C#Cc2cnc(N)nc2)Cc2nc(C)co2)cc1OC1CCCC1 (racemic)	103 to 105
CN(C(=O)CN(C(=O)CNC(=O)Nc1cccc(/C=C/CO)c1)c1ccccc1)c1ccccc1	85
O=C(O)Cn1c(=O)c(=O)[nH]c2cc([N+](=O)[O-])c(-n3ccc(CN4CCC(c5ccccc5)CC4)c3)cc21	> 210
CCCc1c(C#N)c2ccc(C(=O)OC)cc2n1Cc1ccccc1Cl	132 to 133
N#Cc1c(N2CCCN(c3ccccn3)CC2)cc[nH]c1=S	220 to 224
COC(=O)C1=C(C)CN(c2ccccc2)C1=O	143 to 145
OCC1OC(n2cnc3c(NCC(c4ccccc4)c4cccc(Cl)c4)ncnc32)C(O)C1O (configuration not stated)	107 to 110
Cc1cc(C(=N)NO)ccc1-c1cccc(-c2nc3cc(C(=N)NO)ccc3[nH]2)c1	295 to 297

SMILES	melting point [°C]
COc1ccc2cc([C@H](C)C(=O)OCCS(=O)CCOC(=O)OC(C)O[N+](=O)[O-])ccc2c1 (some centres not stated)	112 to 115
CN1C(=O)CN(C=O)C(c2ccccc2)c2cc(Cl)ccc21 (configuration not stated)	167 to 169
CCOC(=O)C1=C[C@@H](OC(CC)CC)[C@@H](NC(C)=O)[C@H](N=[N+]=[N-])[C@@H]1OS(C)(=O)=O	96 to 98
CC1(C)COC(c2ccc3c(c2-c2c(C4=NC(C)(C)CO4)ccc4c2OCO4)OCO3)=N1	152 to 154
Cc1ccc(C2=NC(C)(C(C)C)C(=O)N2)cc1 (configuration not stated)	151 to 154
COC(=O)c1cc(CO)ccc1O	66 to 67
Cn1ncnc1-c1oc2cccc(CCc3ccc(F)cc3)c2c(=O)c1O	192 to 193
O=C(C=Cc1ccc(OC(F)(F)F)cc1)C=Cc1ccc(OC(F)(F)F)cc1	112 to 115
COC(=O)c1cc2ccc(OCCN(C)C(=O)OC(C)(C)C)cc2oc1=O	128 to 129
CCOc1cc(N)c(Cl)cc1C(=O)NC1CCN(CC2CCN(C(=O)CCOC)CC2)CC1	175 to 177
NC(c1ccncc1)C1CCN(C2CCC(O)(CC(=O)O)CC2)CC1 (configuration not stated)	266
N#Cc1cnc2cnc(F)cc2c1O	214 to 215
COc1ccc(-c2sc3cc(OC)ccc3c2C(=O)c2ccc(Br)cc2)cc1	127 to 129
O=C1c2ccccc2C(O)N1CCCOc1ccncc1 (configuration not stated)	124 to 125
CCOC(=O)Nc1cc(=O)c2cc(Oc3ccccc3)c(NS(C)(=O)=O)cc2o1	207 to 209
CCC1(CCCCN2CCN(c3ccc(F)cc3)CC2)C(=O)Nc2ccccc21 (configuration not stated)	118 to 119
O=C1Cc2c(cccc2NC(=O)c2cccn(-c3ccc(F)cc3)c2=O)N1	293 to 295
Cc1nc(SCc2cc(O)nc(O)n2)sc1CC(=O)O	246 to 247
C=CCN(CC=C)c1nc(NC(=O)Cc2ccsc2)n2oc(=O)nc2n1	159 to 161
COc1cccc(-c2c(=O)[nH]c3cc(Cl)c(Cl)cc3[n+]2[O-])c1	238 to 240
CCOC(=O)Cc1ccc(NC(=O)C(COS(C)(=O)=O)NS(=O)(=O)c2ccc(I)cc2)cc1 (racemic)	160 to 162
COc1ccc(Cl)c(Oc2c(C)nc(N3CCOCC3)nc2O)c1	252
